Measurements as given in patent US11666658B2, “Rifamycin analogs and antibody-drug conjugates thereof” (Regeneron Pharmaceuticals, Inc., priority 2018, dated 2023).
Values after ≈ are worked out from the molar mass of the structure shown.

Key:
[1] = tested on: intracellular S. aureus NRS384 in THP-1 macrophages; assay: Intracellular killing assay 2 (rifamycin analogs, S. aureus in THP-1 macrophages); assay type: cell-based, Staphylococcus aureus; details: Staphylococcus aureus, NRS384, 2 h; lowest concentration giving intracellular S. aureus below limit of detection (50 cfu/mL) in THP-1 macrophages; median of at least two experiments; read-out: S. aureus Intracellular killing MIC
Method: THP-1 monocytic cell line was grown in media (RMPI+10% FBS+1% Penicillin/Streptomycin), then seeded at a density of 1e5 cells/well in a 96 well plate and differentiated into macrophages for three days prior to infection using 200 nM PMA. An overnight culture of S. aureus NRS384 was grown in RPMI, washed twice with PBS and resuspended at 1e7 cfu/mL in PBS. THP-1 were washed with warm media (RMPI without FBS) to remove the Penicillin/Streptomycin and then infected with the S. aureus suspension at a multiplicity of infection of 10:1 (S. aureus: macrophages). Plates were spun at 300×g for 5 minutes to synchronize adhesion of the bacteria, then incubated at 37° C. for 2 hours. Free-floating bacteria were removed by washing 2× with warm media and remaining extracellular S. aureus were killed by addition of media containing gentamicin (50 ug/mL). […] The compounds were added in media containing 50 µg/mL gentamicin to prevent extracellular growth of S. aureus. After 2 hours, plates were washed 2× with warm RPMI without FBS, and 100 ul of THP-1 lysis buffer (0.1% Triton in PBS) was added to each well. S. aureus survival was enumerated by colony forming units through serial dilution and plating onto TSA.
The intracellular MIC value indicated represents the median value of at least two independent experiments, unless indicated otherwise.

[2] = tested on: S. aureus NRS384; assay: Broth minimum inhibitory concentration (MIC) assay 2; assay type: cell-based, Staphylococcus aureus; details: S. aureus NRS384 in TSB, 24 hours at 37° C., OD600, median of at least two independent experiments; for MIC: Staphylococcus aureus, read-out: S. aureus Broth MIC
Method: To test the potency of rifamycin analogs of the disclosure in vitro, a broth growth inhibition assay was developed. For the assay, S. aureus NRS384 was grown in Tryptic Soy Broth (TSB) overnight, then sub-cultured 1:50 in fresh TSB and grown for an additional two hours. The culture was then pelleted via centrifugation and washed twice in PBS. The culture was then diluted to 1×10^6 cfu/mL in TSB and 100 μL of the suspension was added per well to a 2 mL dilution plate in triplicate. […] The plates were sealed and incubated at 37° C. with shaking for 24 hours, then 150 μL of each sample was added to 96 well microtiter plates and the OD600 nm was read on a Spectramax i3 Minimax 300.
The broth MIC experiments were assessed in at least two independent experiments and the median value is captured below unless indicated otherwise.

SMILES	MIC [1] [µM]	MIC [2] [µM]	S. aureus Broth MIC [2] [µM]
CO[C@H]1/C=C/O[C@@]2(C)Oc3c(C)c(O)c4c(=O)c(c5oc6cc(OCCOCCN(C)C)ccc6nc-5c4c3C2=O)NC(=O)/C(C)=C\C=C\[C@H](C)[C@H](O)[C@@H](C)[C@@H](O)[C@@H](C)[C@H](OC(C)=O)[C@@H]1C [Analog 16s]	1 (≈ 0.916 µg/mL)	0.0625 (≈ 0.0573 µg/mL)	–
CCN(CC)CCOc1ccc2nc3c4c5c6c(C)c(O)c4c(=O)c(c-3oc2c1)NC(=O)/C(C)=C\C=C\[C@H](C)[C@H](O)[C@@H](C)[C@@H](O)[C@@H](C)[C@H](OC(C)=O)[C@H](C)[C@@H](OC)/C=C/O[C@@](C)(O6)C5=O [Analog 16t]	1 (≈ 0.9 µg/mL)	0.0625 (≈ 0.0563 µg/mL)	–
CO[C@H]1/C=C/O[C@@]2(C)Oc3c(C)c(O)c4c(=O)c(c5oc6cc(OCCN(C(C)C)C(C)C)ccc6nc-5c4c3C2=O)NC(=O)/C(C)=C\C=C\[C@H](C)[C@H](O)[C@@H](C)[C@@H](O)[C@@H](C)[C@H](OC(C)=O)[C@@H]1C [Analog 16u]	1 (≈ 0.928 µg/mL)	1 (≈ 0.928 µg/mL)	–
CO[C@H]1/C=C/O[C@@]2(C)Oc3c(C)c(O)c4c(=O)c(c5oc6cc(OCCN(C)c7ccccn7)ccc6nc-5c4c3C2=O)NC(=O)/C(C)=C\C=C\[C@H](C)[C@H](O)[C@@H](C)[C@@H](O)[C@@H](C)[C@H](OC(C)=O)[C@@H]1C [Analog 16v]	1 (≈ 0.935 µg/mL)	0.0625 (≈ 0.0584 µg/mL)	–
CO[C@H]1/C=C/O[C@@]2(C)Oc3c(C)c(O)c4c(=O)c(c5oc6cc(OCc7ccccc7CN(C)C)ccc6nc-5c4c3C2=O)NC(=O)/C(C)=C\C=C\[C@H](C)[C@H](O)[C@@H](C)[C@@H](O)[C@@H](C)[C@H](OC(C)=O)[C@@H]1C [Analog 16w]	> 1	0.0625 (≈ 0.0593 µg/mL)	–
CO[C@H]1/C=C/O[C@@]2(C)Oc3c(C)c(O)c4c(=O)c(c5oc6cc(OCCNC(C)=O)ccc6nc-5c4c3C2=O)NC(=O)/C(C)=C\C=C\[C@H](C)[C@H](O)[C@@H](C)[C@@H](O)[C@@H](C)[C@H](OC(C)=O)[C@@H]1C [Analog 16x]	> 1	0.000977 (≈ 0.000866 µg/mL)	–
CO[C@H]1/C=C/O[C@@]2(C)Oc3c(C)c(O)c4c(=O)c(c5oc6cc(OCCn7ccnc7)ccc6nc-5c4c3C2=O)NC(=O)/C(C)=C\C=C\[C@H](C)[C@H](O)[C@@H](C)[C@@H](O)[C@@H](C)[C@H](OC(C)=O)[C@@H]1C [Analog 16y]	> 1	0.0156 (≈ 0.014 µg/mL)	–
CO[C@H]1/C=C/O[C@@]2(C)Oc3c(C)c(O)c4c(=O)c(c5oc6cc(OCCN7CCC7)ccc6nc-5c4c3C2=O)NC(=O)/C(C)=C\C=C\[C@H](C)[C@H](O)[C@@H](C)[C@@H](O)[C@@H](C)[C@H](OC(C)=O)[C@@H]1C [Analog 16z-1]	1 (≈ 0.884 µg/mL)	0.00391 (≈ 0.00346 µg/mL)	–
CO[C@H]1/C=C/O[C@@]2(C)Oc3c(C)c(O)c4c(=O)c(c5oc6cc(OCCN(C)C(C)=O)ccc6nc-5c4c3C2=O)NC(=O)/C(C)=C\C=C\[C@H](C)[C@H](O)[C@@H](C)[C@@H](O)[C@@H](C)[C@H](OC(C)=O)[C@@H]1C [Analog 16z]	> 1	0.00391 (≈ 0.00352 µg/mL)	–
CO[C@H]1/C=C/O[C@@]2(C)Oc3c(C)c(O)c4c(=O)c(c5oc6cc(OC7CCN(C)CC7)ccc6nc-5c4c3C2=O)NC(=O)/C(C)=C\C=C\[C@H](C)[C@H](O)[C@@H](C)[C@@H](O)[C@@H](C)[C@H](OC(C)=O)[C@@H]1C [Analog 17]	0.2 (≈ 0.18 µg/mL)	0.0156 (≈ 0.014 µg/mL)	–
CO[C@H]1/C=C/O[C@@]2(C)Oc3c(C)c(O)c4c(=O)c(c5oc6cc(OCCN(C)C)cc(O)c6nc-5c4c3C2=O)NC(=O)/C(C)=C\C=C\[C@H](C)[C@H](O)[C@@H](C)[C@@H](O)[C@@H](C)[C@H](OC(C)=O)[C@@H]1C [Analog 29]	0.04 (≈ 0.0355 µg/mL)	0.00391 (≈ 0.00347 µg/mL)	–
CO[C@H]1/C=C/O[C@@]2(C)Oc3c(C)c(O)c4c(=O)c(c5oc6cc(F)ccc6nc-5c4c3C2=O)NCC(=O)/C(C)=C\C=C\[C@H](C)[C@H](O)[C@@H](C)[C@@H](O)[C@@H](C)[C@H](OC(C)=O)[C@@H]1C [Analog P3]	–	–	0.0156
CO[C@H]1/C=C/O[C@@]2(C)Oc3c(C)c(O)c4c(=O)c(c5oc6cc(N7CCC(N(C)C)CC7)cc(O)c6nc-5c4c3C2=O)NC(=O)/C(C)=C\C=C\[C@H](C)[C@H](O)[C@@H](C)[C@@H](O)[C@@H](C)[C@H](OC(C)=O)[C@@H]1C [Rifalog, reference compound]	–	0.000977 (≈ 0.000906 µg/mL)	–
